Experimental data published in patent US20190192458A1, “THERAPEUTIC/PROPHYLACTIC AGENT FOR GRAFT-VERSUS-HOST DISEASE, FIBROCYTE INVASION INHIBITOR, AND INHIBITOR AGAINST TEAR REDUCTION AND REDUCTION IN GOBLET CELLS” (KEIO UNIVERSITY, priority 2016, published 2019).

Legend:
[1] = tested on: cGVHD model mice (B10.D2 to BALB/c bone marrow transplantation); test: Survival and change in weight of PBA-treated allogeneic bone marrow transplantation recipient mice; assay type: in vivo, mouse; details: PBA 10 mg/kg i.p. once daily Day 10 to Day 27 after allogeneic bone marrow transplantation
Description: Bone marrow transplantation was performed on model mice of cGVHD (Zhang Y, McCormick L L, Desai S R, Wu C, Gilliam A C, Murine Sclerodermatous Graft-Versus-Host Disease, a Model for Human Scleroderma: Cutaneous Cytokines, Chemokines, and Immune Cell Activation. The Journal of Immunology, 2002; 168: 3088-3098). When a donor was a B10.D2 mouse and a recipient was a BALB/c mouse, bone marrow transplantation was allogeneic, producing a model mouse of cGVHD. […] Recipients were irradiated at 700 cGy before bone marrow transplantation to perform lethal irradiation with a Gammacel 137 Cs source (Hitachi Medical Corp.). The recipient mice were each administered via tail vein with a suspension containing 1×10^6 donor bone marrow cells and 2×10^6 donor spleen cells.
Bone marrow transplantation was performed as described in the above section “Bone marrow transplantation,” and the resulting allogeneic bone marrow transplantation recipient mice were divided into two groups. One group was treated with intraperitoneal injection of PBA (10 mg/kg) (Aldrich) while the other was treated with intraperitoneal injection of a solvent vehicle⋅phosphate buffered saline (PBS) (pH 7.4). […]
Statistical significance was determined by the Mann-Whitney U test (which tests difference between two groups that have no correspondence). […]

[2] = tested on: CHOP-expressing macrophages in lacrimal gland; test: Immunofluorescence of CD68/CHOP in lacrimal gland; assay type: in vivo; details: lacrimal gland from PBA-treated vs vehicle-treated mouse, FIG. 7A
Description: Bone marrow transplantation was performed as described in the above section “Bone marrow transplantation,” and the resulting allogeneic bone marrow transplantation recipient mice were divided into two groups. One group was treated with intraperitoneal injection of PBA (10 mg/kg) (Aldrich) while the other was treated with intraperitoneal injection of a solvent vehicle⋅phosphate buffered saline (PBS) (pH 7.4). The allogeneic bone marrow transplantation recipients received once-daily administration of PBA or the solvent vehicle from Day 10 to Day 27 after bone marrow transplantation. They were sacrificed on Day 28 after bone marrow transplantation. […]
Fluorescence images were captured under an LSM confocal microscope (Carl Zeiss). For counting CD45^+ cells, 5 randomly selected regions per section were photographed at a magnification of ×200, and the number of CD45^+ cells in each image was then determined. […]

[3] = tested on: mouse splenic macrophages; test: Cultured splenic macrophages from PBA-treated and vehicle-treated mice (immunofluorescence, immunoblot, qPCR); assay type: cell-based
Description: Bone marrow transplantation was performed as described in the above section “Bone marrow transplantation,” and the resulting allogeneic bone marrow transplantation recipient mice were divided into two groups. One group was treated with intraperitoneal injection of PBA (10 mg/kg) (Aldrich) while the other was treated with intraperitoneal injection of a solvent vehicle⋅phosphate buffered saline (PBS) (pH 7.4). The allogeneic bone marrow transplantation recipients received once-daily administration of PBA or the solvent vehicle from Day 10 to Day 27 after bone marrow transplantation. They were sacrificed on Day 28 after bone marrow transplantation.
Mouse splenic macrophages were cultured according to the Alatery and Besta method (Alatery A, Basta S, An efficient culture method for generating large quantities of mature mouse splenic macrophages. J Immunol Methods, 2008; 338: 47-57). Splenic cells suspended in RPMI containing 5% FBS were plated on a culture dish, and allowed to stand at 37° C. overnight. Subsequently, floating cells were removed. The desired cells adhering on the dish were cultured for 7 days in RPMI containing recombinant mouse M-CSF (5 ng/mL) (Peprotech Inc.), 5% of FBS, and 5% of the antibiotic. Induced macrophages were then detached from the culture dish by using accutase (Thermo Fisher Scientific), and used for experiments.
The induced macrophages were then transferred to an 8-well chamber slide (Fibronectin Culture Slide; Corning), and fixed with 10% neutral buffered formalin. Subsequently, they were blocked with methanol containing 0.3% hydrogen peroxide for 30 minutes at room temperature, and incubated with primary antibodies CD68 (AbD Serotec) and CHOP (Santa Cruz) overnight at 4° C. Then, the sections were treated with goat anti-mouse IgG (H+L) secondary antibody conjugated with Alexa Fluor 568 (Molecular Probes) and 4′,6-diamidino-2-phenylindole (DAPI) (Life Technologies) at room temperature for 45 minutes, and then mounted with an anti-fading mounting medium (Dako). Fluorescence images were captured under an LSM confocal microscope (Carl Zeiss).
The total RNA was extracted from the exorbital lacrimal gland, the proximal portion of the small intestine, the dorsal skin, the liver, the cultured fibroblasts, and the cultured macrophages using a miRNeasy mini kit (Qiagen), and the corresponding complementary DNAs were synthesized using a Rever Tra Ace qPCR RT kit (Toyobo Co., Ltd.). Primers used for analyzing the mRNA expression of the following genes with the TaqMan real-time polymerase chain reaction (PCR) were purchased from Applied Biosystems: housekeeping gene […] (GAPDH), glucose-regulated protein 78 (GRP78), Interleukin-1β (IL-1β), IL-6, IL-10, macrophage chemoattractant protein-1 (MCP-1), and transcription growth factor-β (TGF). A Step One Plus system (Applied Biosystems) was used to perform quantitative real time PCR, and the resulting data was analyzed by the 2^−ΔΔCT method. GAPDH was used as an internal standard for measuring the expression of mRNA.
Tissues of interest were each placed into an Eppendorf tube, and a pre-cooled RIPA buffer solution was then added to the tube. Subsequently, the tissues were each homogenized with an electric homogenizer. Samples were each allowed to stand on ice for 1 hour, and then centrifuged at 15000 rpm for 5 minutes at 4° C. Then, the supernatants were each collected in a fresh tube on ice, and used as a cell lysate. The cell lysates each received the same amount of a 5×Laemmli buffer solution, and each was heated at 100° C. for 5 minutes to denature proteins.
An aliquot of each sample having the same amount of proteins was loaded into a well of an SDS-PAGE gel, and then […]. Proteins were transferred from the gel to a membrane at 15 V for 20 minutes. The membrane was blocked at room temperature for 1 hour with 5% skim milk or 5% BSA (bovine serum albumin) in 1×TBST (a mixture of Tris-buffered saline and Tween 20). […]

[4] = splenic macrophages from PBA-treated vs vehicle-treated mouse, immunoblot, n=4
[5] = splenic macrophages, qPCR, n=4 to 5, PBA-treated vs vehicle-treated, FIG. 7E

Compound: O=C(O)CCCc1ccccc1 [PBA, 4-phenyl-n-butyric acid]
- % survival ([1]; vs vehicle (PBS), FIG. 2A, n=14, P<0.05): higher survival percentage
- change in weight ([1]; vs vehicle, FIG. 2B, n=10, P<0.001): the vehicle-treated mouse group showed larger weight loss as compared with the PBA-treated mouse group
- CHOP-expressing macrophages migrated into lacrimal gland [2]: not observed
- CHOP expression in cultured splenic macrophages (immunofluorescence) ([3]; splenic macrophages from PBA-treated vs vehicle-treated mouse, FIG. 7B): vehicle-treated splenic macrophages express CHOP in contrast with PBA-treated splenic macrophages
- CHOP in splenic macrophages (immunoblot) [3, 4]: substantially inhibited
- GRP78 in splenic macrophages [3, 4]: substantially inhibited
- phosphorylated IRE1α in splenic macrophages [3, 4]: substantially inhibited
- phosphorylated PERK in splenic macrophages [3, 4]: substantially inhibited
- phosphorylated eIF2α in splenic macrophages [3, 4]: substantially inhibited
- gene expression of M1 macrophage marker IL-1β [3, 5]: higher gene expressions
- gene expression of M1 macrophage marker IL-6 [3, 5]: higher gene expressions
- mRNA expression of M2 macrophage marker IL-10 [3, 5]: increased in the vehicle-treated macrophages as compared with the PBA-treated macrophages
- mRNA expression of M2 macrophage marker TGF-β [3, 5]: increased in the vehicle-treated macrophages as compared with the PBA-treated macrophages
